This passage reports cytotoxicity results from ChEMBL document CHEMBL3507680, “University of Dundee, Gates Library screen for HepG2 cell viability”.

The series can be described thus: Human HepG2 cell viability assay in 384 well format. The series is classed as toxicity, cell-based. More on the design: dose 125 nL, time 70.5 hour; cytotoxicity at 70.5 h: concentration not given beside the values. To be noted: HepG2 cells, read-out: Inhibition.

Take `CS(=O)(=O)NCC1Cc2ccccc2O1` (centres undefined): the cytotoxicity at 70.5 h was -0.512%. With `OC(c1cnn(-c2ccccc2)c1)C(F)(F)F` (centres undefined) the figure was -1.66%. With `CC(C)c1nnc(CN2CCCc3ccc(S(N)(=O)=O)cc32)o1` the figure was -0.377%. Turning to `O=C(NCCN1CCOCC1)c1cc(-c2ccc(Cl)s2)[nH]n1`, the cytotoxicity at 70.5 h is -1.44%.

In the case of `Cc1noc(C)c1CC(=O)NCCN1CCN(S(C)(=O)=O)CC1`, the cytotoxicity at 70.5 h amounted to 0.0227%. With `Cc1noc(C)c1C(=O)NCCN1CCOCC1` the figure was 1.59%; with `O=C(CS(=O)(=O)c1ncccc1Cl)NC1CCCc2ccccc21` (centres undefined), 12%; with `N#Cc1cnc(NC2CCN(C(=O)C3CCCCC3)CC2)c(Cl)c1`, -0.508%.

In the case of `COC(=O)c1cc(NCC(=O)NC(N)=O)cc(C(F)(F)F)c1`, the cytotoxicity at 70.5 h was 0.625%.

For the molecule `CC(C)(CNC(=O)Nc1cccc(-c2nccs2)c1)C(N)=O`, the cytotoxicity at 70.5 h was -0.236%. The value for `CC(C)(CNC(=O)Nc1cccc(-c2cccs2)c1)C(N)=O` was 0.351%; that for `Cc1cccc(CNC(Cn2cncn2)c2ccccc2)c1C` (centres undefined) was 1.21%. With `CC(C)CC(NC(=O)c1cccc(F)c1F)C(=O)Nc1cc[nH]n1` (centres undefined) the figure was -1.3%. As to `N#Cc1c(Cl)nsc1NCc1ccc(N2CCSCC2)cc1`, the cytotoxicity at 70.5 h turned out to be 12.7%. The value for `O=C(CNC(=O)Nc1cccc(-c2nccs2)c1)NCCO` was -2.39%.

As for `Cc1cccc(N2CCN(CCC(=O)NCc3nnc[nH]3)CC2)c1`, the cytotoxicity at 70.5 h is -1.67%.

As to `O=C(CS(=O)(=O)c1cccc[n+]1[O-])NC1CCCc2ccccc21` (centres undefined), the cytotoxicity at 70.5 h is 1.9%. The value for `Cc1cn2c(CN(C)C(=O)c3cnc(N)c(Cl)c3)c(C)nc2s1` was 11.9%; that for `Cc1nnc(NCc2ccc(N3CCC(CO)CC3)cc2)c(C#N)c1C` was -1.7%; that for `N#Cc1cccc(CN(CC(=O)N2CCCC2)CC2CCCO2)c1` (centres undefined) was 0.804%. With `COc1ccc(CNC(Cn2cncn2)c2ccccc2)cc1C` (centres undefined) the figure was -4.57%; with `O=C(CN(Cc1cccc(F)c1)CC1CCCO1)N1CCCC1` (centres undefined), 13.7%; with `Cc1cc(CN(C)CCN(C)c2ccccc2)no1`, 0.0635%.

Consider `CCSCCC(C)N(C)C(=O)c1ccc(C)o1` (centres undefined), for which the cytotoxicity at 70.5 h is -1.62%. Turning to `N#Cc1csc(CN(CC(=O)N2CCCC2)CC2CCCO2)c1` (centres undefined), the cytotoxicity at 70.5 h worked out at 0.764%. Regarding `CN(CCCNC(=O)Nc1ccc(C#N)cc1)CC(F)(F)F`, the cytotoxicity at 70.5 h is 40.9%. With `CN(CCCNC(=O)c1ccc(C#N)cc1)CC(F)(F)F` the figure was 5.13%; with `Cc1ccc(C)c(Oc2ccc(CNC(=O)C3CCS(=O)(=O)C3)cn2)c1` (centres undefined), -10.1%. The value for `COC(=O)c1ccc(OCC(=O)N(C)Cc2ccsc2)c(OC)c1` was -5.54%; that for `COc1ccc(CC(=O)N2CCC(c3nncn3C)CC2)cc1F` was -10.5%; that for `Cc1cc(C)c(CNC(=O)N2CCC(N3CCCCC3)CC2)c(=O)[nH]1` was -7.65%. Regarding `Cc1nc(COc2ccc(OCC(N)=O)cc2)oc1C`, the cytotoxicity at 70.5 h is -8.19%.

Take `O=C1CN(C(=O)c2cc(Cl)ccc2F)c2ccncc2N1`: the cytotoxicity at 70.5 h was -8.1%. With `COc1ccc(Br)cc1CC(=O)Nc1cc(C)n[nH]1` the figure was 25.5%; with `Cc1nc(COc2ccc(OC(C)C(N)=O)cc2)oc1C` (centres undefined), -0.152%; with `Cc1cc(C)c(CNC(=O)N2CCC(N3CCNC3=O)CC2)c(C)c1`, -7.95%. The value for `Cc1cc(C(=O)N2CC(=O)Nc3cnccc32)c(Cl)cc1F` was -1.87%; that for `CC(C)c1nsc(N2CCOC3(CCCC3)C2)n1` was -2.46%.

Take `O=C(c1cnc(NCCC2CCCO2)c(Cl)c1)N1CCOCC1` (centres undefined): the cytotoxicity at 70.5 h was -7.98%. `COCCN1CCC(NC(=O)NCC2(c3cccc(F)c3)CC2)C1` (centres undefined): the cytotoxicity at 70.5 h is -8.45%. With `CC1CN(C(=O)NCc2cccc(C#N)c2)CCN1CC(F)(F)F` (centres undefined) the figure was -7.28%; with `Cc1cc(C2CCCN(Cc3ncc(C(C)C)o3)C2)n[nH]1` (centres undefined), -6.54%; with `CCc1nc(C(=O)N2CCOCC2CC(=O)c2ccccc2)c[nH]1` (centres undefined), -8.59%. With `O=C(CC1COCCN1C(=O)c1cscn1)c1ccccc1` (centres undefined) the figure was -11.8%; with `Cc1nc(-c2cccc(C#N)c2)nn1CC1(O)CCCCC1`, 3.88%; with `N#CCCCOc1cccc(CN2CCCC2c2ccc[nH]2)c1` (centres undefined), 1.38%. Take `COCc1cccc(C(=O)N2CCCC2)c1`: the cytotoxicity at 70.5 h worked out at 4.08%. For the molecule `Cc1cc(Br)ccc1NCC(=O)Nc1cc(C(C)(C)C)no1`, the cytotoxicity at 70.5 h was -4.88%. In the case of `Cc1cc(C(=O)NC2CCN(c3ncccc3C#N)CC2)no1`, the cytotoxicity at 70.5 h was -2.85%. With `Cc1ncsc1C(=O)NC1CCN(c2ncccc2C#N)CC1` the figure was -6.11%; with `CCc1ccc(C(C)NC(=O)CCc2nc(-c3nnc[nH]3)no2)cc1` (centres undefined), -4.48%.

As to `CCCC(=O)NC1CCCN(C(=O)c2ccc(C)nc2)C1` (centres undefined), the cytotoxicity at 70.5 h amounted to 14.6%. Take `CCc1noc(C)c1C(=O)NCc1cc[nH]n1`: the cytotoxicity at 70.5 h amounted to 0.164%.

Take `Cn1c(C2CCCCN2C(=O)CN2CCCC2=O)nc2ccccc21` (centres undefined): the cytotoxicity at 70.5 h came to 21.3%. Take `CCC(=O)NC1CCCN(C(=O)c2ccc(OCC3CC3)nc2)C1` (centres undefined): the cytotoxicity at 70.5 h is 15.5%. For `CCc1ccc(C2CCCCCN2C(=O)CNC(=O)C2CC2)o1` (centres undefined), the cytotoxicity at 70.5 h is -1.46%. `CCNC(=O)NCc1ccc(CN2CCCC(C)C2)cc1` (centres undefined): the cytotoxicity at 70.5 h was -0.573%. Take `CCc1ccc(C2CCCCCN2C(=O)CNC(=O)NC2CC2)o1` (centres undefined): the cytotoxicity at 70.5 h is -1.33%. With `Cc1cn2c(n1)CCC(NS(=O)(=O)c1ccc(C)s1)C2` (centres undefined) the figure was -1.48%. On to `N#Cc1cccc(-c2ncnn2CC2(O)CCCCC2)c1`, for which the cytotoxicity at 70.5 h is -3.16%. On to `CC(C)(C)[S+]([O-])CCNC(=O)c1csc(NC2CC2)n1` (centres undefined), for which the cytotoxicity at 70.5 h was found to be 12.6%. Take `Cc1cc(NC(=O)N2CCOCC2)nn1-c1ccccc1Cl`: the cytotoxicity at 70.5 h was -5.4%. As for `c1ncc2c(n1)CN(Cc1cn3ccsc3n1)CC2`, the cytotoxicity at 70.5 h was -4.44%. For `CC(NC1(CNC(=O)NC2CC2)CCOCC1)c1ccccc1` (centres undefined), the cytotoxicity at 70.5 h turned out to be 14.3%. With `COCCOCC(=O)Nc1ccc(F)cc1C` the figure was 11.3%. With `Cc1ccc(C(=O)N(C)Cc2cc(Br)cs2)cn1` the figure was -8.7%; with `CC(C)C(=O)NCCC(=O)N1CCN(c2ccccn2)CC1`, -4.63%. Consider `Cc1nc(C2(NCC(=O)NC(=O)NCC(F)(F)F)CCCCC2)no1`, for which the cytotoxicity at 70.5 h was 13.9%. The value for `Cc1ncsc1C(=O)N1CCN(Cc2cscn2)CC1` was -1.83%; that for `O=C(NCCCNC(=O)c1ccc(F)cc1F)c1cccc(O)c1` was -1.34%; that for `Cc1noc(C(C)N2CCN(CC(=O)N3CCCC3)CC2)n1` (centres undefined) was -1.93%. With `Cc1noc(C(C)N2CCN(CCC(=O)N3CCOCC3)CC2)n1` (centres undefined) the figure was -5.76%; with `COc1cccc(CC(=O)NCC(Cc2ccc(F)cc2)C(N)=O)c1` (centres undefined), -4.64%. The value for `CC(C)OCCC(=O)NCCC(=O)N1CCN(c2ccccn2)CC1` was -3.84%.
